# Values quoted from earlier work, collected in US11253534B2, “Method of preventing COVID-19 infection” (priority 2020, dated 2022).
# Details: in vivo
compound,measurement,value
CCN(CCO)CCCC(C)Nc1ccnc2cc(Cl)ccc12 (stereo not shown) [hydroxychloroquine],half-life,up to 32 days
